Reference: patent publication US20260274832A1, “COMPOUNDS AND THEIR USE IN TREATING CANCER” (ASTRAZENECA AB, priority 2023, published 2026)

Assays:
[1] = molecular target: T1, AR (L702H) in LNCaP cells (Homo sapiens, UniProt P10275, L702H/T878A); assay: LNCaP Androgen Receptor L702H Imaging Assay (LNCaP cells engineered by CRISPR/Cas9); assay type: cell-based; details: LNCaP cells with AR L702H mutation, 24 h incubation; for DC50: concentration giving 50% of maximum degradation of AR (L702H) per curve fit; for Dmax: LNCaP, maximum degradation observed, normalized as % of positive control
T1 construct: engineered to introduce the mutation L702H into the AR gene using CRISPR/Cas9; endogenous in cells; host or cells: LNCaP cells edited by CRISPR/Cas9 at the AR gene
T1 sequence (P10275 whole entry L702H/T878A): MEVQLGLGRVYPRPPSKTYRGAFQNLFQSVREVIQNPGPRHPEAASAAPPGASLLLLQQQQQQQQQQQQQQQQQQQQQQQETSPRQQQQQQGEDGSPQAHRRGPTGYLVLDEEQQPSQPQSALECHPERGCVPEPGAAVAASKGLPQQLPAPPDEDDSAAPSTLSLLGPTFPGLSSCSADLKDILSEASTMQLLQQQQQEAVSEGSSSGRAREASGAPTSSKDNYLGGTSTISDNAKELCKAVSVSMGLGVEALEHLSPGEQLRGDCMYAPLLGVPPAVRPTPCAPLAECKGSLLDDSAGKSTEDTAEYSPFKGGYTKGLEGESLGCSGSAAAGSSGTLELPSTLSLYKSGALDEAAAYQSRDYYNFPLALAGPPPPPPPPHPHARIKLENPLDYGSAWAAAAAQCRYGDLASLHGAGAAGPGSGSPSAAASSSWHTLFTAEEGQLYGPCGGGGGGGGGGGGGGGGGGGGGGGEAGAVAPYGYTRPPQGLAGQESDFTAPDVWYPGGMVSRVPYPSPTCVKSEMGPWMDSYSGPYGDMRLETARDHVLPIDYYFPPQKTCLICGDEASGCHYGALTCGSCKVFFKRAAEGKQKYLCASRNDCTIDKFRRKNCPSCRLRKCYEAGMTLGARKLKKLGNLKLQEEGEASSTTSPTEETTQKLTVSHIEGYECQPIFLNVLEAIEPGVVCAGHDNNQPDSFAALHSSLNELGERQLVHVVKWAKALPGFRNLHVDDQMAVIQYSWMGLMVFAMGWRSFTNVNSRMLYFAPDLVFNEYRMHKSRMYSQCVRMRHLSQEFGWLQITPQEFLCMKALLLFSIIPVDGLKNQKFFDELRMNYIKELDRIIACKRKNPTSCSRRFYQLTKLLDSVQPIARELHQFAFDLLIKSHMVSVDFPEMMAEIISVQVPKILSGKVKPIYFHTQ
T1 sequence (Q96SW2 whole entry partner): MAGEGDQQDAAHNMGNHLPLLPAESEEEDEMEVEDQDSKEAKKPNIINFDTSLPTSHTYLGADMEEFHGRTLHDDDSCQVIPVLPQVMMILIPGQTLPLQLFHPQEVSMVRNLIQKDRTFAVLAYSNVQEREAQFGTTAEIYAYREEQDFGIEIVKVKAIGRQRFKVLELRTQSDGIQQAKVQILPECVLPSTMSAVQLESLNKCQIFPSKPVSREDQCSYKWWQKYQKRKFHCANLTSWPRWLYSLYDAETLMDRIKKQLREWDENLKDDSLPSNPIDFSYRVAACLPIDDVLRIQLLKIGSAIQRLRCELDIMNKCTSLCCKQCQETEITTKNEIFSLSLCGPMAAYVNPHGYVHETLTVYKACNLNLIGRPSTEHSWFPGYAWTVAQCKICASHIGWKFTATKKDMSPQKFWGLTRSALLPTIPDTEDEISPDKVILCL
Procedure, shortened: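 AR (L702H) degradation, expressed as DC50 and Dmax from curve fits normalized to a positive degrader control, was measured by high-content imaging of anti-AR immunofluorescence. The engineered LNCaP line was dosed over 12 concentrations for 24 h, 0.3% DMSO final, before PFA fixation.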

[2] = molecular target: T2, AR (AR-full length) in LNCaP cells (Homo sapiens, UniProt P10275, T878A); assay: LNCaP Androgen Receptor Imaging Assay (immunofluorescence of endogenous nuclear AR); assay type: cell-based; details: 24 h incubation; for DC50: concentration giving 50% of maximum degradation of AR per curve fit, single experiment or average of two or more; for Dmax: LNCaP, maximum degradation observed, normalized as % of positive control (prior art AR PROTAC at 3 μM)
T2 construct: the prostate cancer cell line LNCaP (expressing AR-full length); endogenous in cells; host or cells: LNCaP
T2 sequence (P10275 whole entry T878A): as the sequence (P10275 whole entry L702H/T878A) above, with H702L counted along it
T2 sequence (Q96SW2 whole entry partner): as the sequence (Q96SW2 whole entry partner) above
Procedure, shortened: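 Endogenous nuclear AR level was imaged by immunofluorescence after 24 h compound exposure (12-point dose response, 0.3% DMSO, 37° C./5% CO2) in LNCaP cells. Data were expressed as % of a 3 μM prior-art AR PROTAC control and fitted (bell fit where a hook appeared) to give DC50 and maximum degradation Dmax.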

Compound	DC50 [1] [nM]	Dmax [1] [%]	DC50 [2] [nM]	Dmax [2] [%]
N#Cc1c[nH]c2c(N3CCC(c4ccc(N5CCC(CN6CCC(n7ccc8c(N9CCC(=O)NC9=O)cccc87)CC6)CC5)nc4)CC3)ccc(Cl)c12 [Example 108, 4-Chloro-7-(4-{6-[4-({4-[4-(2,4-dioxo-1,3-diazinan-1-yl)-1H-indol-1-yl]piperidin-1-yl}methyl)piperidin-1-yl]pyridin-3-yl}piperidin-1-yl)-1H-indole-3-carbonitrile]	34	102	7	104
N#Cc1c[nH]c2c(N3CCC(c4ccc(N5CCC(CN6CCN(c7ccc8c(c7)CN(C7CCC(=O)NC7=O)C8=O)CC6)CC5)nc4)CC3)ccc(Cl)c12 (stereo not shown) [Example 109, 4-Chloro-7-(4-{6-[4-({4-[2-(2,6-dioxopiperidin-3-yl)-1-oxo-2,3-dihydro-1H-isoindol-5-yl]piperazin-1-yl}methyl)piperidin-1-yl]pyridin-3-yl}piperidin-1-yl)-1H-indole-3-carbonitrile]	10	96	5	97
N#Cc1c[nH]c2c(N3CCC(c4ccc(N5CCC(N6CCN(c7ccc8c(c7)CN(C7CCC(=O)NC7=O)C8=O)CC6)CC5)cc4)CC3)ccc(Cl)c12 (stereo not shown) [Example 110, 4-Chloro-7-{4-[4-(4-{4-[2-(2,6-dioxopiperidin-3-yl)-1-oxo-2,3-dihydro-1H-isoindol-5-yl]piperazin-1-yl}piperidin-1-yl)phenyl]piperidin-1-yl}-1H-indole-3-carbonitrile]	5	97	6	88
N#Cc1c[nH]c2c(N3CCC(c4ccc(N5CCC(N6CCC(n7ccc8c(N9CCC(=O)NC9=O)cccc87)CC6)CC5)cc4)CC3)ccc(Cl)c12 [Example 111, 4-Chloro-7-[4-(4-{4-[4-(2,4-dioxo-1,3-diazinan-1-yl)-1H-indol-1-yl][1,4′-bipiperidin]-1′-yl}phenyl)piperidin-1-yl]-1H-indole-3-carbonitrile]	5	106	4	99
COc1cc(N2CCN(CC3CCN(c4ccc(C5CCN(c6ccc(Cl)c7c(C#N)cn(C)c67)CC5)cc4)CC3)CC2)cc2c1C(=O)N(C1CCC(=O)NC1=O)C2 (stereo not shown) [Example 112, 4-chloro-7-(4-{4-[4-({4-[2-(2,6-dioxopiperidin-3-yl)-7-methoxy-1-oxo-2,3-dihydro-1H-isoindol-5-yl]piperazin-1-yl}methyl)piperidin-1-yl]phenyl}piperidin-1-yl)-1-methyl-1H-indole-3-carbonitrile]	17	87	> 3000	
N#Cc1c[nH]c2c(N3CCC(c4cccc(N5CCC(CN6CCN(c7ccc8c(c7)CN(C7CCC(=O)NC7=O)C8=O)CC6)CC5)c4)CC3)ccc(Cl)c12 (stereo not shown) [Example 113, 4-Chloro-7-(4-{3-[4-({4-[2-(2,6-dioxopiperidin-3-yl)-1-oxo-2,3-dihydro-1H-isoindol-5-yl]piperazin-1-yl}methyl)piperidin-1-yl]phenyl}piperidin-1-yl)-1H-indole-3-carbonitrile]	36	76	19	92
Cc1cc2c(N3CCC(=O)NC3=O)cccc2n1C1CCN(CC2CCN(c3ccc([C@@H]4CCCN(c5ccc(Cl)c6c(C#N)c[nH]c56)C4)cc3)CC2)CC1 [Example 114, 4-Chloro-7-[(3S)-3-{4-[4-({4-[4-(2,4-dioxo-1,3-diazinan-1-yl)-2-methyl-1H-indol-1-yl]piperidin-1-yl}methyl)piperidin-1-yl]phenyl}piperidin-1-yl]-1H-indole-3-carbonitrile]	31	101	19	101
Cc1cc2c(N3CCC(=O)NC3=O)cccc2n1C1CCN(CC2CCN(c3ccc(C4CCN(c5ccc(Cl)c6c(C#N)c[nH]c56)CC4)cc3)CC2)CC1 [Example 123, 4-Chloro-7-(4-{4-[4-({4-[4-(2,4-dioxo-1,3-diazinan-1-yl)-2-methyl-1H-indol-1-yl]piperidin-1-yl}methyl)piperidin-1-yl]phenyl}piperidin-1-yl)-1H-indole-3-carbonitrile]	18	104	14	95
N#Cc1c[nH]c2c(N3CCC(c4cnc(N5CCC(CN6CCN(c7ccc8c(c7)CN(C7CCC(=O)NC7=O)C8=O)CC6)CC5)nc4)CC3)ccc(Cl)c12 (stereo not shown) [Example 124, 4-Chloro-7-(4-{2-[4-({4-[2-(2,6-dioxopiperidin-3-yl)-1-oxo-2,3-dihydro-1H-isoindol-5-yl]piperazin-1-yl}methyl)piperidin-1-yl]pyrimidin-5-yl}piperidin-1-yl)-1H-indole-3-carbonitrile]	9	93	3	95
N#Cc1c[nH]c2c(N3CCC(c4cnc(N5CCC(CN6CCC(n7ccc8c(N9CCC(=O)NC9=O)cccc87)CC6)CC5)nc4)CC3)ccc(Cl)c12 [Example 125, 4-Chloro-7-(4-{2-[4-({4-[4-(2,4-dioxo-1,3-diazinan-1-yl)-1H-indol-1-yl]piperidin-1-yl}methyl)piperidin-1-yl]pyrimidin-5-yl}piperidin-1-yl)-1H-indole-3-carbonitrile]	9	93	4	102
N#Cc1c[nH]c2c(N3CCC(c4ccc(N5CCO[C@H](CN6CCN(c7ccc8c(c7)CN(C7CCC(=O)NC7=O)C8=O)CC6)C5)cc4)CC3)ccc(F)c12 (stereo partly drawn) [Example 126, 7-(4-{4-[(2R)-2-({4-[2-(2,6-dioxopiperidin-3-yl)-1-oxo-2,3-dihydro-1H-isoindol-5-yl]piperazin-1-yl}methyl)morpholin-4-yl]phenyl}piperidin-1-yl)-4-fluoro-1H-indole-3-carbonitrile]	2	107	4	98
N#Cc1c[nH]c2c(N3CCC(c4ccc(N5CCO[C@H](CN6CCN(c7ccc8c(c7)CN(C7CCC(=O)NC7=O)C8=O)CC6)C5)cc4)CC3)ccc(Cl)c12 (stereo partly drawn) [Example 127, 4-Chloro-7-(4-{4-[(2R)-2-({4-[2-(2,6-dioxopiperidin-3-yl)-1-oxo-2,3-dihydro-1H-isoindol-5-yl]piperazin-1-yl}methyl)morpholin-4-yl]phenyl}piperidin-1-yl)-1H-indole-3-carbonitrile]	4	110	4	100
N#Cc1c[nH]c2c(N3CCC(c4ccc(N5CC6(CCC(CN7CCN(c8ccc9c(c8)CN(C8CCC(=O)NC8=O)C9=O)CC7)CC6)C5)cc4)CC3)ccc(F)c12 (stereo not shown) [Example 128, 7-(4-{4-[7-({4-[2-(2,6-Dioxopiperidin-3-yl)-1-oxo-2,3-dihydro-1H-isoindol-5-yl]piperazin-1-yl}methyl)-2-azaspiro[3.5]nonan-2-yl]phenyl}piperidin-1-yl)-4-fluoro-1H-indole-3-carbonitrile]	61	103	26	102
N#Cc1c[nH]c2c(N3CCC(c4ccc(N5CC6(CCC(CN7CCN(c8ccc9c(c8)CN(C8CCC(=O)NC8=O)C9=O)CC7)CC6)C5)cc4)CC3)ccc(Cl)c12 (stereo not shown) [Example 129, 4-Chloro-7-(4-{4-[7-({4-[2-(2,6-dioxopiperidin-3-yl)-1-oxo-2,3-dihydro-1H-isoindol-5-yl]piperazin-1-yl}methyl)-2-azaspiro[3.5]nonan-2-yl]phenyl}piperidin-1-yl)-1H-indole-3-carbonitrile]	29	99	20	95
N#Cc1c[nH]c2c(N3CCC[C@@H](c4ccc(N5CC6(CCC(CN7CCN(c8ccc9c(c8)CN(C8CCC(=O)NC8=O)C9=O)CC7)CC6)C5)cc4)C3)ccc(Cl)c12 (stereo partly drawn) [Example 130, 4-Chloro-7-[(3S)-3-{4-[7-({4-[2-(2,6-dioxopiperidin-3-yl)-1-oxo-2,3-dihydro-1H-isoindol-5-yl]piperazin-1-yl}methyl)-2-azaspiro[3.5]nonan-2-yl]phenyl}piperidin-1-yl]-1H-indole-3-carbonitrile]	42	78	31	99
N#Cc1c[nH]c2c(N3CCC[C@@H](c4ccc(N5CC6(CCC(CN7CCC(n8ccc9c(N%10CCC(=O)NC%10=O)cccc98)CC7)CC6)C5)cc4)C3)ccc(Cl)c12 [Example 131, 4-Chloro-7-[(3S)-3-{4-[7-({4-[4-(2,4-dioxo-1,3-diazinan-1-yl)-1H-indol-1-yl]piperidin-1-yl}methyl)-2-azaspiro[3.5]nonan-2-yl]phenyl}piperidin-1-yl]-1H-indole-3-carbonitrile]	41	94	17	105
Cn1c(C2CCN(CC3CCN(c4ccc([C@H]5CCCN(c6ccc(Cl)c7c(C#N)n[nH]c67)C5)cc4)CC3)CC2)cc2ccc(N3CCC(=O)NC3=O)cc21 [Example 132, 4-Chloro-7-[(3R)-3-{4-[4-({4-[6-(2,4-dioxo-1,3-diazinan-1-yl)-1-methyl-1H-indol-2-yl]piperidin-1-yl}methyl)piperidin-1-yl]phenyl}piperidin-1-yl]-1H-indazole-3-carbonitrile]	5	115	6	98
